Results reported in patent US8614179B2, “Antibacterial combination therapy for the treatment of gram positive bacterial infections” (E-Therapeutics PLC, priority 2008, dated 2013).
Read-outs that look alike come from different tables or passages of the source.

Tests used:
[1] = test system: Enterococcus faecium (VRE); test: microbe, parasite or virus in culture; type: cell-based; conditions: read-out: MIC
Description: (§1) In example experiments miconazole nitrate, econazole nitrate and clotrimazole were dissolved in DMSO. Colistin, D-cycloserine, fosfomycin and polymixin B were dissolved in water. Nisin was suspended at 10 mg/mL in 0.02 M HCl, and the supernatant fraction following centrifugation at 10,000 g for 10 mins was used in the following experiments.
(§2) Other solvents that may be used include caster oil, pyridine, and 0.9% saline. For IV administration agents may be solubilised in polyethoxylated caster oil, or cyclodextrins such as sulfobutylether7-βcyclodextrin or hydroxypropyl-β-cyclodextrin and lactic acid. Minimum inhibitory concentrations (MICs) of a range of clinical and control bacterial organisms were measured according to BSAC (British Society for Antimicrobial Chemotherapy) guidelines (Andrews 2001), for single agents. The method of determining MICs of imidazole with colistin, D-cycloserine, fosfomycin, polymixin B, or nisin is described briefly as follows. MICs were measured by agar dilution. Kill curves were performed in accordance with the methods of Garrison and Nuemiller, 2007. Briefly kill profiles were generated by logarithmically plotting mean CFU/mL data over time. Total logarithmic reductions in bacterial counts were determined by subtracting 24 h CFU/mL values from starting inocula.
(§3) Stock solutions were prepared at concentrations of 1000 mg/L and 100 mg/L. To determine the MIC of miconazole, the appropriate amount of each stock solution were added to separate Petri dishes give a range of final concentrations (after the addition of 20 mL molten agar): from 0.12 to 32 mg/L. To determine the MICs of miconazole with the specific agent active on a bacterial cell surface, these concentrations of miconazole were used in addition to a fixed sub-inhibitory amount of the agent active on a bacterial cell surface. […] Volumes (20 mL) of cooled molten IST agar (oxoid) was added to each Petri dish and mixed by swirling. After drying, the plates were stored at 4° C. and protected from light. Plates were used on the day of preparation.
(§4) The test organisms were grown overnight in 5 mL IST broth. Using a dilution in 0.9% saline of 1:100, the appropriate agar plates were inoculated using a multipoint inoculator.
(§5) Agar plates and microtitre plates were incubated at 37° C. in air for 18-20 hours.
(§6) The MIC is the minimum amount of an antibiotic at which there is no visible growth of bacteria. Tiny single colonies or faint hazes were not counted as growth. Synergy was reported if the inhibitory effect of the drugs in combination were greater than the sum of the inhibitory effects of each drug singly. The concentration of miconazole, with or without the cell membrane or cell wall active agent, capable of inhibiting the growth of 50% and 90% of the strains tested is reported as the MIC50 and MIC90 respectively. The range of MICs for each group of bacterial strains is also reported.

[2] = test system: MRSA; test: microbe, parasite or virus in culture; type: cell-based; conditions: Staphylococcus aureus
Description: as §1, §2, §3, §4, §5, §6

[3] = test system: VISA; test: microbe, parasite or virus in culture; type: cell-based; conditions: Staphylococcus aureus, read-out: MIC
Description: as §1, §2, §3, §4, §5, §6

[4] = test system: E1 E. gall ATCC 12359 VanC; test: organism not typed; type: cell-based; conditions: Table 4; strain E1 E. gall ATCC 12359 VanC; agents singly or miconazole MIC with 2.5 mg/L nisin
Description: as §1
as §2, with “Briefly kill profiles were generated by logarithmically plotting mean CFU/mL data over time.” left out, “inocula. […]” for “inocula.”
The MIC is the minimum amount of an antibiotic at which there is no visible growth of bacteria. Tiny single colonies or faint hazes were not counted as growth. […]

[5] = test system: MRSA AND VRE; test: MIC by agar dilution, MIC50/MIC90/range over MRSA and VRE strain panel; type: cell-based, Staphylococcus aureus; Enterococci
Description: In example experiments miconazole nitrate, econazole nitrate and clotrimazole were dissolved in DMSO. Colistin, D-cycloserine, fosfomycin and polymixin B were dissolved in water.
as §2, with “The method of determining MICs of imidazole with colistin, D-cycloserine, fosfomycin, polymixin B, or nisin is described briefly as follows.” left out
as §3
The test organisms were grown overnight in 5 mL IST broth. Using a dilution in 0.9% saline of 1:100, the appropriate agar plates were inoculated using a multipoint inoculator. […]
The MIC is the minimum amount of an antibiotic at which there is no visible growth of bacteria. Tiny single colonies or faint hazes were not counted as growth. […] The concentration of miconazole, with or without the cell membrane or cell wall active agent, capable of inhibiting the growth of 50% and 90% of the strains tested is reported as the MIC50 and MIC90 respectively. The range of MICs for each group of bacterial strains is also reported.

[6] = Table 1a, MRSA n = 27, VRE n = 5, miconazole MIC alone or with D-cycloserine fixed at 10 mg/L
[7] = Table 1b, MRSA n = 27, VRE n = 5, miconazole MIC alone or with fosfomycin fixed at 5 mg/L
[8] = Table 1c, MRSA n = 21, VRE n = 3, miconazole MIC alone or with colistin fixed at 5 mg/L
[9] = Table 1e, MRSA n = 21, VRE n = 4, miconazole MIC alone or with nisin fixed at 2.5 mg/L
[10] = Table 3, MRSA n = 27, VRE n = 5, miconazole alone, 1:1 bacitracin to miconazole, or with bacitracin fixed at 2.5 mg/L

Clc1ccc(COC(Cn2ccnc2)c2ccc(Cl)cc2Cl)c(Cl)c1 (stereo not shown) [Miconazole, 1-[2-(2,4-Dichlorophenyl)-2-[(2,4-dichlorophenyl)methoxy]ethyl]-1H-imidazole]
0.5 to 8 mg/L: MIC Range [5, 6] | MIC Range [5, 7] | MIC Range [5, 9] | MIC Range [5, 10]
0.5 µg/mL: MIC ([1]; ATCC 7171 / VRE, Table 4, strain E. faecium ATCC 7171, agents singly or miconazole MIC with 2.5 mg/L nisin) | MIC ([2]; Table 4, strain PF 153a 026225E, agents singly or miconazole MIC with 2.5 mg/L nisin)
1 to 6 mg/L: MIC Range [5, 8] | MIC Range ([5]; Table 1d, MRSA n = 21, VRE n = 3, miconazole MIC alone or with polymixin B fixed at 20 mg/L)
4 µg/mL: MIC ([1]; VRE, Table 4, strain E. faecium VanR B145344C LFE, agents singly or miconazole MIC with 2.5 mg/L nisin) | MIC ([3]; Table 4, strain USA/VISA 5836, agents singly or miconazole MIC with 2.5 mg/L nisin) | MIC90 ([5]; 24 h, Table 1d, MRSA n = 21, VRE n = 3, miconazole MIC alone or with polymixin B fixed at 20 mg/L) | MIC90 [5, 8] | MIC90 [5, 9]
2 mg/L: MIC 50 ([5]; 24 h, Table 1d, MRSA n = 21, VRE n = 3, miconazole MIC alone or with polymixin B fixed at 20 mg/L, read-out: MIC 50) | MIC 50 ([5]; Table 1a, MRSA n = 27, VRE n = 5, miconazole MIC alone or with D-cycloserine fixed at 10 mg/L, read-out: MIC 50) | MIC 50 [5, 7] | MIC 50 [5, 8] | MIC 50 [5, 9] | MIC 50 [5, 10]
1 µg/mL: MIC ([2]; Table 4, strain LF18, agents singly or miconazole MIC with 2.5 mg/L nisin) | MIC ([2]; Table 4, strain PF 15a 009521M ST22 EMRSA, agents singly or miconazole MIC with 2.5 mg/L nisin) | MIC ([3]; Table 4, strain Mu50ex Japan, agents singly or miconazole MIC with 2.5 mg/L nisin) | MIC [4]
2 µg/mL: MIC ([1]; VRE, Table 4, strain E15 VanAATCC4147 E. faecium, agents singly or miconazole MIC with 2.5 mg/L nisin) | MIC ([2]; Table 4, strain LF10, agents singly or miconazole MIC with 2.5 mg/L nisin) | MIC ([2]; Table 4, strain LF11, agents singly or miconazole MIC with 2.5 mg/L nisin) | MIC ([2]; Table 4, strain LF12, agents singly or miconazole MIC with 2.5 mg/L nisin) | MIC ([2]; Table 4, strain LF13, agents singly or miconazole MIC with 2.5 mg/L nisin) | MIC ([2]; Table 4, strain LF14, agents singly or miconazole MIC with 2.5 mg/L nisin) | MIC ([2]; Table 4, strain LF15, agents singly or miconazole MIC with 2.5 mg/L nisin) | MIC ([2]; Table 4, strain LF16, agents singly or miconazole MIC with 2.5 mg/L nisin) | MIC ([2]; Table 4, strain LF17, agents singly or miconazole MIC with 2.5 mg/L nisin) | MIC ([2]; Table 4, strain LF19, agents singly or miconazole MIC with 2.5 mg/L nisin) | MIC ([2]; Table 4, strain PF 16a 00923R EMRSA 16, agents singly or miconazole MIC with 2.5 mg/L nisin) | MIC ([2]; Table 4, strain PF 99b 983237K BERIAN CLONE, agents singly or miconazole MIC with 2.5 mg/L nisin) | MIC ([2]; Table 4, strain PF 116a 981695K, agents singly or miconazole MIC with 2.5 mg/L nisin) | MIC ([2]; Table 4, strain S113 MRSA, agents singly or miconazole MIC with 2.5 mg/L nisin) | MIC ([3]; Table 4, strain Mu3ex Japan, agents singly or miconazole MIC with 2.5 mg/L nisin) | MIC ([3]; Table 4, strain USA/VISA 5827, agents singly or miconazole MIC with 2.5 mg/L nisin) | MIC ([3]; Table 4, strain VISA 3900 UK, agents singly or miconazole MIC with 2.5 mg/L nisin) | MIC90 [5, 6] | MIC90 [5, 7] | MIC90 [5, 10]
